Test results: ChEMBL document CHEMBL4011582, “Human drug-induced liver injury severity is highly associated with dual inhibition of liver mitochondrial function and bile salt export pump” (Hepatology, 2014)

What was measured:
Bile salt export pump [1] = molecular target: T1, Bile salt export pump (Homo sapiens, UniProt O95342); assay: Inhibition of recombinant human BSEP expressed in baculovirus infected sf9 cell plasma membrane vesicles assessed as reduction in ATP-dependent [3H]-taurocholate uptake in to vesicles preincubated for 10 mins followed by ATP addition measured after 10 to 15 mins by TopCount method; assay type: ADME
clinical = conditions: human
Liver = assay type: ADME, mitochondria, Rattus norvegicus, Sprague-Dawley
Bile salt export pump [2] = molecular target: T1, Bile salt export pump; assay: Inhibition of recombinant human BSEP expressed in baculovirus infected sf21 cell plasma membrane vesicles assessed as reduction in ATP-dependent [3H]-taurocholate uptake in to vesicles after 5 mins by microbeta filtration method; assay type: ADME
[3] = Induction of mitochondrial dysfunction in liver mitochondria (unknown origin) assessed as inhibition of mitochondrial respiration
Bile salt export pump [4] = molecular target: T1, Bile salt export pump; assay type: ADME; conditions: read-out: IC50
Bile salt export pump [5] = molecular target: T1, Bile salt export pump; assay: Inhibition of BSEP (unknown origin); assay type: ADME

T1 sequence (O95342 whole entry): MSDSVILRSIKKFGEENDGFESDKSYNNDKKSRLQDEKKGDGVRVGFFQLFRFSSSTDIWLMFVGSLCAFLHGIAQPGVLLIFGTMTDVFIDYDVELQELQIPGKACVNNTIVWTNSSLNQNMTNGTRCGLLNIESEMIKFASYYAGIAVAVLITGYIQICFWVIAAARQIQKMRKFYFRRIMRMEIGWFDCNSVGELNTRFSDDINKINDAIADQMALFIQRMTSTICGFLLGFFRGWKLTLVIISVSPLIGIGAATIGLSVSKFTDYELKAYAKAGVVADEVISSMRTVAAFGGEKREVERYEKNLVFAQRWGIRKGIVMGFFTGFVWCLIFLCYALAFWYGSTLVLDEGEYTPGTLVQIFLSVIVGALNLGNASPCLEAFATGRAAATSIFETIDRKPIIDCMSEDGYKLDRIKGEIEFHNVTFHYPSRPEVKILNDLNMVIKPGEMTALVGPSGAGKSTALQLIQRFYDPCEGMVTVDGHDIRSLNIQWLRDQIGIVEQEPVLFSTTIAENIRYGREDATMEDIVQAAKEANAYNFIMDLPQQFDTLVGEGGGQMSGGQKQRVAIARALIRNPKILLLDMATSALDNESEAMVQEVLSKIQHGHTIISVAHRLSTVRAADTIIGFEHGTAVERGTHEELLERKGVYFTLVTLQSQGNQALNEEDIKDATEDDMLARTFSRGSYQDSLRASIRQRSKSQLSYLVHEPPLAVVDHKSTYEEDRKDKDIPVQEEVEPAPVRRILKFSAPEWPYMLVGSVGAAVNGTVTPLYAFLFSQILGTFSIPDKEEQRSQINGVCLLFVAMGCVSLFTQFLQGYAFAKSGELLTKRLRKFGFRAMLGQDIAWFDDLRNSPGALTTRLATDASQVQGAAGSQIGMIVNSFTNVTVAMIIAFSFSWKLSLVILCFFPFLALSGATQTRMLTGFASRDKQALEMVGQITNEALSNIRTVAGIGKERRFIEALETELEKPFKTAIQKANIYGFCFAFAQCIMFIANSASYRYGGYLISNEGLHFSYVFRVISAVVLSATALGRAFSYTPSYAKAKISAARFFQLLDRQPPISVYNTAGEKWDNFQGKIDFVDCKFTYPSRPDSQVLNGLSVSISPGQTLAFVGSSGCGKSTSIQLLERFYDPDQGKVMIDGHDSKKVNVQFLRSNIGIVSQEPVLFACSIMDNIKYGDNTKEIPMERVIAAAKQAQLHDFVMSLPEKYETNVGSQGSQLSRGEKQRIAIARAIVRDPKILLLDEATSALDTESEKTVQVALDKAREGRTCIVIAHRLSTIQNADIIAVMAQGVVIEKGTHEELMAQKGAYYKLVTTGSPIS

SMILES | Cmax (clinical) [nM] | IC50 [3] [nmol/mg] | IC50 (Bile salt export pump [4]) [µM] | IC50 (Bile salt export pump [1]) [µM] | IC50 (Liver) | IC50 (Bile salt export pump [2]) [mM] | IC50 (Bile salt export pump [5]) [µM]
CN(CCOc1ccc(CC2SC(=O)NC2=O)cc1)c1ccccn1 (stereo unspecified) [ROSIGLITAZONE] | 1040 |  |  | 3.75 |  |  | 
C[N+](C)(C)CC(=O)O [BETAINE] | 599000 |  |  |  | Non-Toxic | > 1 | 
CC[C@H]1OC(=O)[C@H](C)C(=O)[C@H](C)[C@@H](O[C@@H]2O[C@H](C)C[C@H](N(C)C)[C@H]2O)[C@](C)(OC)C[C@@H](C)C(=O)[C@H](C)[C@H]2N(CCCCn3cnc(-c4cccnc4)c3)C(=O)O[C@]12C [TELITHROMYCIN] | 2770 |  | 30 |  | Non-Toxic |  | 
O=C1C(CC[S+]([O-])c2ccccc2)C(=O)N(c2ccccc2)N1c1ccccc1 (stereo unspecified) [SULFINPYRAZONE] | 44200 |  | 11 |  | Non-Toxic |  | 
O=C1CC2(CCCC2)CC(=O)N1CCCCN1CCN(c2ncccn2)CC1 [BUSPIRONE] | 5 |  | > 100 |  | Non-Toxic |  | 
C[C@@H]1C[C@H]2[C@@H]3CCC4=CC(=O)C=C[C@]4(C)[C@@]3(Cl)[C@@H](O)C[C@]2(C)[C@@]1(O)C(=O)CCl [MOMETASONE] | 0.3 |  | 9.3 |  | Non-Toxic |  | 
CCOC(=O)[C@@]1(CCCCCCOc2ccc(Cl)cc2)CO1 [ETOMOXIR] |  |  |  |  |  |  | 11.8
C[C@H]1C[C@H]2[C@@H]3CCC4=CC(=O)C=C[C@]4(C)[C@@]3(Cl)[C@@H](O)C[C@]2(C)[C@@]1(O)C(=O)CO [BECLOMETHASONE] | 0.2 |  | 10.3 |  | Non-Toxic |  | 

Further lines, with some results ahead:

Cmax (clinical) [nM] | IC50 [3] [nmol/mg] | IC50 (Bile salt export pump [4]) [µM] | SMILES | IC50 (Bile salt export pump [1]) [µM] | IC50 (Liver) | IC50 (Bile salt export pump [2]) [mM] | IC50 (Bile salt export pump [5]) [µM]
 | 45 |  | COCC(=O)NC/C=C/c1ccc2ncnc(Nc3ccc(Oc4ccc(C)nc4)c(C)c3)c2c1 [CP-724714] |  |  |  | 
8500 |  | 18.7 | CO[C@H]1/C=C/O[C@@]2(C)Oc3c(C)c(O)c4c(O)c(c(/C=N/N5CCN(C)CC5)c(O)c4c3C2=O)NC(=O)/C(C)=C\C=C\[C@H](C)[C@H](O)[C@@H](C)[C@@H](O)[C@@H](C)[C@H](OC(C)=O)[C@@H]1C [RIFAMPIN] |  | Non-Toxic |  | 
1340 |  | > 100 | CC(CCc1ccc(O)cc1)NCCc1ccc(O)c(O)c1 (stereo unspecified) [DOBUTAMINE] |  | Non-Toxic |  | 
64500 |  |  | CN[C@@H]1[C@H](O[C@H]2[C@H](O[C@H]3[C@H](O)[C@@H](O)[C@H](N=C(N)N)[C@@H](O)[C@@H]3N=C(N)N)O[C@@H](C)[C@]2(O)C=O)O[C@@H](CO)[C@H](O)[C@H]1O [STREPTOMYCIN] |  | Non-Toxic | > 1 | 
